Columns and labels:
[1] = system: total RNase activity in liver lysate; experiment: RNaseAlert fluorescent assay, liver lysate; assay type: biochemical, mouse; details: heated + 2.9 mM Ap5A
Procedure: (§1) Flash-frozen mouse tissues (5 mg) were dounced in 50 ul of 24 mM Hepes, pH 7.2, 50 mM NaCl, 1 mM MgCl2. RNase activity was measured using Ambion's fluorescent RNaseAlert™ assay ([…] substrate, 10 ug/ml ultrapure BSA) via BMG POLARstar Optima Fluorometer according to the manufacturer's protocol. In addition to measuring total RNase activity, lysates were treated with Ap5A, heat (90 C for 10 min), or 0.5 U/ul RIP. Tissue lysate dilutions: pancreas 1:16,200; liver 1:17; thymus 1:17; kidney 1:17; spleen 1:810; lung 1:810. The data were normalized to maximum RNase activity observed in tissue lysate with kidney being the tissue with the lowest RNase activity and assigned the arbitrary unit of 1. […] However, RIP is specific to RNase A superfamily enzymes, where Ap5A, as a RNA analogue, is expected to be a more general RNase inhibitor.

[2] = system: total RNase activity in kidney lysate; experiment: RNaseAlert fluorescent assay, kidney lysate; assay type: biochemical, mouse; details: heated + 2.9 mM Ap5A
Procedure: as §1

[3] = system: total RNase activity in pancreas lysate; experiment: RNaseAlert fluorescent assay, pancreas lysate; assay type: biochemical, mouse
Procedure: as §1
Pancreatic tissue (5 mg) was dounced in 50ul of 24 mM Hepes, pH 7.2, 50 mM NaCl, 1 mM MgCl2. Diluted pancreas lysate (1:12,000) was subjected to a 1/10 volume of negatively charged SP resin. RNase activity of the clarified lysate was measured using. Ambion's fluorescent RNaseAlert™ assay (40 nM substrate, 10 ug/ml ultrapure BSA) via BMG POLARstar Optima, according to the manufacturer's instructions. Resin treatment removed >95% of total RNase activity in diluted pancreas lysate. […] In this case, inactivation is accomplished by binding of the positively-charged RNase to the negatively-charged sulfopropyl resin. Thus the RNases can be physically removed from the tissue lysate and separated from the RNA that they might otherwise degrade over time.

[4] = system: total RNase activity in thymus lysate; experiment: RNaseAlert fluorescent assay, thymus lysate; assay type: biochemical, mouse; details: heated + 2.9 mM Ap5A
Procedure: as §1

diluted liver lysate = details: 5 mm edta, liver lysate 1:5, e. coli total rna, room temperature 5.5 min
Procedure: Tissues (5 mg) were dounced in 50 ul of non-denaturing, neutral ph buffer (24 mm hepes, ph 7.2, 50 mm nac1, 1 mm mgc12). Diluted tissue lysates (pancreas 1:20,000; liver 1:5) or 5 pg/ul bovine rnase a were pre-incubated with 0.2u/ul rip, 50 mm citrate or 5 mm edta for 30 sec. A total of 100 pg/ul e. Coli total rna was then added to the mixture and incubated at room temperature for an additional 4 min (FIG. 1., Lanes 1-5) or 5.5 min (lanes 6&7). […] The sample (1 ul) was analyzed by bioanalyzer 2100 after separation on an ma labchip.

RNase A [5] = experiment: Salt-based inhibition of RNase activity (RNaseAlert); assay type: biochemical, bovine; details: increasing salt concentrations, fluorescence 490/520 nm
RNase A, 1, and T1 = experiment: Anti-RNase antibodies / Specific Anti-RNase Cocktail with added non-antibody inhibitor; assay type: biochemical
Procedure: (§2) The activity of an anti-nuclease cocktail is readily determined using radiolabeled RNA or DNA to detect the inhibition of nuclease by anti-nuclease antibodies in the anti-nuclease cocktail. […] Assay buffer, nuclease and an anti-nuclease cocktail are then added to 0.5 ml microfuge tubes. A mixture comprising assay buffer, RNA or DNA and radiolabeled RNA or DNA is added to the microfuge tubes, and the tubes are vortexed and microfuged. After incubation of the tubes at 37° C. for 30 minutes, a portion of the tube contents is removed and placed into gel loading buffer. After mixing, the combination is loaded onto a gel, typically a 8M urea/5% acrylamide gel, which is exposed to film.
(§3) Radiolabeled RNA was used to detect the inhibition of RNase A, RNase T1, and RNase 1 by specific antibodies.
(§4) The “MIX” was prepared by combining 10× Assay Buffer (0.9 μl/rxn), 5 mg/ml yeast RNA (0.4 μl/rxn), ^32P-labeled β actin RNA (1 μl/rxn), and nuclease-free H2O (6.7 μl/rxn), for a total of 9 μl/rxn.
(§5) 1× Assay Buffer was added first. Then Specific RNase Cocktail, Specific Anti-RNase Cocktail and MIX were added. The tubes are vortexed and microfuged, then incubated at 37° C. for 30 min (Table 9).
(§6) At the end of the incubation time, 10 μl of solution was removed from the tube and placed into 10 μl Gel Loading Buffer II. The combination was mixed thoroughly and loaded onto a 8M urea/5% acrylamide gel. The gel was exposed to film for 30 min. at −80° C. with an intensifying screen.

RNase A [6] = biological target: T1, RNase A (Bos taurus, UniProt P61823); experiment: Radiolabeled RNA probe degradation gel assay, RNase A; assay type: biochemical
T1 sequence (P61823 27-150): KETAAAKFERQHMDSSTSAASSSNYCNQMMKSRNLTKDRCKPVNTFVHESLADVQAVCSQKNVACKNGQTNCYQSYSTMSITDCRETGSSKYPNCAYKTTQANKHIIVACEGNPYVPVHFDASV
Procedure: as §2, §3, §4, §5, §6

diluted pancreas lysate = experiment: Intactness of total RNA (RNA LabChip), diluted pancreas lysate; assay type: biochemical, mouse; details: 1% SDS, pancreatic lysate 1:20,000, mouse liver total RNA, 25 C 4 min
Procedure: A total of 100 pg/ul e. […].
Pancreatic lysate (0.1 mg/ml) was diluted 1:20,000 in 24 mM Hepes, pH 7.2, 50 mM NaCl, 1 mM MgCl2 and pre-incubated with either 1% SDS or 6.25 mM OVA for 30 s prior to the addition of 2 ug mouse liver total RNA. Reactions were incubated at 25 C for an additional 4 min, quenched, and analyzed on an RNA LabChip.
Mouse pancreatic tissue (5 mg) was disrupted in 50 ul of 24 mM Hepes, pH 7.2, 50 mM NaCl, 1 mM MgCl2. The diluted lysate (1:20,000) was pre-incubated with 50 uM Benzopurpurin B (BpB) for 30 sec and then added to 100 ng/ul mouse liver total RNA (Ambion) and incubated at 23 C for an additional 4 min. Samples were quenched in a guanidinium lysis buffer, and the RNA purified via MEGAclear™ MAG-96 and eluted with 20 ul nuclease-free water. […] These experiments were conducted in the same fashion except that 100 uM BpB was employed. The sample (1 ul) was analyzed by 2100 BioAnalyzer software (Agilent) after separation on an RNA LabChip.
Mouse pancreatic tissue (5 mg) was dounced in 50 ul of 24 mM Hepes, pH 7.2, 50 mM NaCl, 1 mM MgCl2. A diluted lysate (1:20,000) was pre-incubated with 100 uM BpB or the analog Benzopurpurin 4B (Bp4B) for 30 sec and then added to 100 ng/ul mouse liver total RNA (Ambion) and incubated at 23 C for an additional 4 min. Samples were quenched in a guanidinium lysis buffer, and the RNA purified via MEGAclear™ MAG-96 and eluted with 20 ul nuclease-free water. The sample (1 ul) was analyzed by 2100 BioAnalyzer software (Agilent) after separation on an RNA LabChip.
Pancreatic tissue (5 mg) was dounced in 50 ul of 24 mM Hepes, pH 7.2, 50 mM NaCl, 1 mM MgCl2. The lysate was diluted (1:20,000) and then pre-incubated with 200 uM of 467929. […] All samples were pre-incubated for 30 sec before being added to 100 ng/ul mouse liver total RNA (Ambion) and incubated at 23C for an additional 4 min. The RNA was then immediately purified via MEGAclear™ MAG-96 and eluted with 20 ul nuclease-free water. The recovered RNA (1 ul) was analyzed by 2100 BioAnalyzer software after separation on an RNA LabChip.

RNase T1 = biological target: T2, RNase T1 (Aspergillus oryzae, UniProt P00651); experiment: Radiolabeled RNA probe degradation gel assay, RNase T1; assay type: biochemical; details: 2.5 to 5 ug of heparin
T2 sequence (P00651 27-130): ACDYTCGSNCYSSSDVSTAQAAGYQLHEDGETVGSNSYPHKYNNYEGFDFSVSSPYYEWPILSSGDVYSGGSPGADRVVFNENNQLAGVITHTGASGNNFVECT
Procedure: The activity of anti-nuclease antibodies is readily determined using radiolabeled RNA or DNA to detect the inhibition of RNase or DNase by the anti-nuclease antibodies. In general, the nuclease and anti-nuclease antibody are separately diluted, typically in 1× assay buffer. Assay buffer, nuclease and anti-nuclease antibody are then added to 0.5 ml microfuge tubes. For assaying anti-RNase activity, a mixture comprising assay buffer, RNA and radiolabeled RNA is added to the microfuge tubes. The “MIX” of assay buffer, RNA and radiolabeled RNA is generally prepared by combining 10× Assay Buffer (0.9 μl/rxn), 5 mg/ml yeast RNA (0.4 μl/rxn), ^32-β actin RNA (1 μl/rxn), and nuclease-free H2O (6.7 μl/rxn) for a total of 9 μl/rxn. The tubes are vortexed and microfuged, then incubated at 37° C. for 30 minutes. After incubation, a portion of the tube contents is removed and placed into gel loading buffer. Then the tube contents and the gel loading buffer are mixed, and the combination is loaded onto a gel, typically a 8M urea/5% acrylamide gel, which is exposed to film. […]
The activity of an anti-nuclease cocktail is readily determined using radiolabeled RNA or DNA to detect the inhibition of nuclease by anti-nuclease antibodies in the anti-nuclease cocktail. […]

Nc1ncnc2c1ncn2[C@@H]1O[C@H](COP(=O)(O)OP(=O)(O)OP(=O)(O)OP(=O)(O)OP(=O)(O)OC[C@H]2O[C@@H](n3cnc4c(N)ncnc43)[C@H](O)[C@@H]2O)[C@@H](O)[C@H]1O [Ap5A]
% Inhibition [1]: 97.2%
Slope/sec [1]: 0.46
% Inhibition [2]: 98.9%
Slope/sec [2]: 0.02
% Inhibition ([3]; Pancreas + 232 uM Ap5A): 44.3%
Slope/sec ([3]; Pancreas + 232 uM Ap5A): 13.58
% Inhibition ([3]; Pancreas + 1.3 mM Ap5A): 87.5%
Slope/sec ([3]; Pancreas + 1.3 mM Ap5A): 3.05
% Inhibition ([3]; Pancreas + 2.9 mM Ap5A): 97.7%
Slope/sec ([3]; Pancreas + 2.9 mM Ap5A): 0.55
% Inhibition [4]: 88.5%
Slope/sec [4]: 0.33

O=C(O)CN(CCN(CC(=O)O)CC(=O)O)CC(=O)O [EDTA, ethylenediamine tetraacetic acid]
protection of total RNA from degradation (diluted liver lysate): significant protection

O=C([O-])CC(O)(CC(=O)[O-])C(=O)[O-].[Na+].[Na+].[Na+] [NaCitrate]
effect on RNase A activity (RNase A [5]): Inhibits

[Cl-].[Na+] [NaCl]
effect on RNase A activity (RNase A [5]): inhibits

CCCCCCCCCCCCOS(=O)(=O)[O-].[Na+] [SDS, sodium dodecyl sulfate]
effect on anti-RNase A, 1, and T1 action of Specific Anti-RNase Cocktail (RNase A, 1, and T1; 0.1–0.5% SDS added to cocktail): Addition of 0.1–0.5% SDS to Specific Anti-RNase Cocktail strengthened anti-
concentration that inhibited activity of RNase A (RNase A [6]; 50 pg of RNase A): 0.25% SDS inhibited activity of 50 pg of RNase A.
protection of RNA from degradation (diluted pancreas lysate): help remedy RNA degradation

NC(N)=O [urea]
effect on action of Specific Anti-RNase Cocktail (RNase A, 1, and T1; 6 M urea added to cocktail): Anti-Rnase Cocktail strengthened the action of Specific Anti-RNase Cocktail.
concentration that inhibited RNase A activity (RNase A [6]): 6 M urea inhibited RNase A activity. This concentration of urea added to the Specific

heparin
effect on activity of Rnases T1 (RNase T1): *This amount of heparin did not effect the activities of RNases A and Rnases T1.
effect on activity of RNases A (RNase A [6]; 2.5 to 5 ug of heparin): *This amount of heparin did not effect the activities of RNases A and Rnases T1.

— US7264932B2, “Nuclease inhibitor cocktail” (Applera Corporation, priority 1999, dated 2007)
